Measured values reported in article PMC9170688, “Gametocyte-specific and all-blood-stage transmission-blocking chemotypes discovered from high throughput screening on Plasmodium falciparum gametocytes” (Communications Biology, 2022).
Values joined by “and” are separate entries in the source; they are usually repeats but may differ in a detail not shown here. Equal entries are not always repeated.

How the values were obtained:
[1] = test system: P. falciparum NF54 hsp86-PpyRE13 asexual stages; assay: P. falciparum asexual stage assay (pLDH); assay type: cell-based, Plasmodium falciparum; settings: asexual stages, line NF54 Hsp86 PpYRE13; read-out: NF54 Hsp86 PpYRE13 (IC50 nM)
Experimental: (§1) With the selected 84 compounds, the subsequent step aimed at determining the gametocyte inhibition potency and the parasite stage selectivity between the gametocytes and the asexual stages in the NF54 hsp86-PpyRE13. […] Similar data were obtained considering the gametocyte IC50 values measured in the NF54 pfs16-GFP-PyLUC strain (see Supplementary Data 2).
Parasite proliferation assays were performed in 384-well plates (Thermo, 4332, USA) with a starting parasitemia of 0.25% at a haematocrit of 2% by quantification of parasite lactate dehydrogenase (pLDH). Compounds or DMSO as control were pre dispensed on plates, from 10 mM DMSO stock solutions, via an acoustic droplet ejection device (ATS-100, EDC Biosystems) to achieve de final desired concentration. Assay plates were incubated for 72 h at 37 °C in 4% CO2, 3% O2, and 93% N2 modified atmosphere. After the incubation period, plates are frozen at −80 °C for two h and then thawed at room temperature for 2 h. Then, 50 µL of the developer solution (70 mM Tris-HCl pH 8.0, 0.5% Tween-20, 100 mM Lithium L-Lactate, 125 µM nitro blue tetrazolium, 2 U/ml diaphorase and 100 µM 3-Acetylpyridine Adenine Dinucleotide) are added to each well and let to react for 10 min. Absorbance was then read at 650 nm by a suitable spectrophotometer.

[2] = test system: P. falciparum NF54 hsp86-PpyRE13 gametocytes; assay: P. falciparum gametocyte luminescence assay (PfLuc), line NF54 hsp86-PpyRE13; assay type: cell-based, Plasmodium falciparum; settings: gametocytes, line NF54 HSP86; read-out: Pf Gametocytes NF54 HSP86 (IC50 nM)
Experimental: (§2) To exclude false positive compounds that may interfere with the click beetle CBG99 luciferase signal and to confirm the activity on gametocytes produced by other P. falciparum lines, we tested the above 638 compounds at a single concentration of 10 µM on gametocytes from two NF54 strain derived lines: pfs16-GFP-PyLUC (Photinus pyralis luciferase under the same pfs16 promoter)[14],[16],[27] and hsp86-PpyRE13 that was generated for this work to express the mutated Photinus pyralis PpyRE13 luciferase in gametocytes under the promoter of the pfhsp86 gene.
as §1
(§3) Parasite gametocyte luminescence assays were performed in 384-well plates (Thermo, 4332, USA) by infected red blood cells seeded at 40 µL/well at a haematocrit of 0.625% for the strain 3D7elo1-pfs16-CBG99, 1.875% for both strains NF54 hsp86-PpyRE13 and NF54 pfs16-GFP-PyLUC. Assay were performed in the medium: 10.44 g/L RPMI 1640 Medium (Gibco, 51800043), 5.95 g/L HEPES (Sigma, H4034), 50 mg/L Hypoxantine (Sigma, 56700), 10% heat inactivated human serum, 10 ml of Neomycin solution (Sigma, N1142) and 2.1 g/L NaHCO3 (Sigma, 144-55-8). Compounds or DMSO as control were pre dispensed on plates, from 10 mM DMSO stock solutions, via an acoustic droplet ejection device (ATS-100, EDC Biosystems) to achieve the final desired concentration. Assay plates were incubated for 48 h at 37 °C in 4% CO2, 3% O2, and 93% N2 modified atmosphere. After incubation, 20 µL/well of a solution of luciferin (Regis, 1-360242-200) potassium/sodium salt (300 µg/ml) are added to the assay plates and read at suitable luminescence detection after 1 min incubation at room temperature. The whole HTS was performed in 7 rounds of 30–80 plates each in two months’ time.

HeLa cells = assay: HeLa cell proliferation assay (CellTiter Glo); assay type: cell-based, human
Experimental: In addition, we tested the 84 compounds in a dose-response fashion on HeLa cells to quantitatively monitor their cytotoxicity potential.
HeLa cells (CCL-2, ATCC, USA) were cultured in DMEM without phenol red (Thermo, 11880, USA) + 10% FBS + 1X PenStrep + 1X Gln. They were plated in a 384-well plate (Thermo, 4334-11, USA) to a density of 2000 cells per well and let recover for 4 h at 37 °C, 5% CO2 in a humidified atmosphere. After the recovery, compounds were transferred to assay plates as per compound preparation method. Assay plates were then incubated at 37 °C, 5% CO2 in a humidified atmosphere for 72 h. Cell viability was measured by the CellTiTer Glo (Promega, G8080, USA) as per manufacturer instruction.

[3] = test system: P. falciparum NF54 pfs16-GFP-PyLUC gametocytes; assay: P. falciparum gametocyte luminescence assay (PfLuc), line NF54 pfs16-GFP-PyLUC; assay type: cell-based, Plasmodium falciparum; settings: gametocytes, line NF54 pfs16; read-out: Pf Gametocytes NF54 pfs16 (IC50 nM)
Experimental: as §2, §1, §3

[4] = test system: P. falciparum NF54 male gametocytes (stage V); assay: Male gamete exflagellation assay; assay type: cell-based, Plasmodium falciparum; settings: for Inhibition of male exflagellation at 1 µM: 48 h
Experimental: The above selected 30 compounds were subjected to a phenotypic male gamete exflagellation assay. This assay measures the viability of male gametocytes by quantitating the final step of maturation into motile microgametes in vitro[24]. This process naturally occurs in the mosquito gut within minutes from the blood meal. The acquisition of time lapse videos of gamete motility in bright field microscopy and the subsequent analysis to count exflagellation centres were performed in an automated HTS format in 384-well plates. The compounds were tested in two independent biological replicates at the concentration of 1 µM. […] The results of this study led to the identification of 16 compounds with anti-exflagellation activity (Fig. 4). […] The standard membrane feeding assay (SMFA) is used to measure the parasite transmission through mosquito. In this assay, mature stage V gametocytes of the P. falciparum strain NF54-hsp70-luc were treated with 1 and 10 µM of the nine selected compounds for 24 h, added with human red blood cells and serum to achieve a haematocrit of 50% and then fed to mosquitoes. Luminescence was analyzed in […] 8 days post-feeding.
Asexual parasites of the NF54 line, kindly obtained from Elena Levashina’s laboratory (Max Plank Institute for Infection Biology, Berlin, Germany), were seeded at 1% total parasitemia and grown for 16 days changing medium every day until development of stage V gametocytes (about 1–2% of stage V gametocytemia). 100 µl of gametocyte culture was seeded in each well of a 96 well-plate and 100 µl of 2× concentration of compounds or DMSO as control were added to each well to achieve the desired final concentration. Assay plates were incubated for 48 h at 37 °C in 4% CO2, 3% O2, and 93% N2 modified atmosphere. After the incubation period, 100 µl of medium were removed from each well and the other 100 µl were transferred to a black imaging 96 well plate (ibidi) containing 100 µl of complete medium supplemented with 40 µM of xanthurenic acid. After 15 min, exflagellation events were captured by three ten-second videos each well with an Olympus IX83 inverted microscope with a UPLSAPO 10× N.A. 0.75 objective (Olympus, Japan), equipped with a Hamamatsu ORCA-Flash 4.0 V3 camera. Each video was analyzed using the Icy bio-image analysis software (http://icy.bioimageanalysis.org/) to count the number of exflagellation events.

[5] = test system: P. falciparum NF54 male gametocytes (stage V); assay: Male gamete exflagellation assay; assay type: cell-based, Plasmodium falciparum; settings: 48 h
[6] = test system: P. falciparum 3D7elo1-pfs16-CBG99 gametocytes; assay: P. falciparum gametocyte luminescence assay (PfLuc), primary HTS line 3D7elo1-pfs16-CBG99; assay type: cell-based, Plasmodium falciparum; settings: 10 µM MB, Rep1-Rep2
Excerpt: In this line, the CBG99 luciferase-coding region (from the click beetle Pyrophorus plagiophthalamus) is integrated into the parasite genome and expressed under the control of the pfs16 gametocyte-specific promoter.
Obtaining an accurate gametocyte synchronization with minimal parasite handling is of paramount importance to establish a robust and reliable HTS assay. To this aim, the timing of addition of N-acetyl glucosamine (NAG), used to clear residual asexual stages after appearance of stage I gametocytes, was optimized. […] Using these cultures, different haematocrit percentages (0.625, 1.25 and 2.5%) and two incubation times (48- and 72 h) were tested to identify the optimal luciferase readout.
A collection of 119.059 compounds of the CNCCS library was tested on gametocytes of the 3D7elo1-pfs16-CBG99 strain at 10 µM using the protocol described above. […]
as §3

[7] = test system: P. falciparum strain NF54-hsp70-luc stage V gametocytes fed to Anopheles stephensi mosquitoes; assay: whole plant or invertebrate; assay type: in vivo, Plasmodium falciparum; settings: for transmission blocking in SMFA: 24 h treatment; for luminescence signal of individual mosquitoes (SMFA, Fig. 5): one value per mosquito
Experimental: The above selected 30 compounds were subjected to a phenotypic male gamete exflagellation assay. This assay measures the viability of male gametocytes by quantitating the final step of maturation into motile microgametes in vitro[24]. This process naturally occurs in the mosquito gut within minutes from the blood meal. The acquisition of time lapse videos of gamete motility in bright field microscopy and the subsequent analysis to count exflagellation centres were performed in an automated HTS format in 384-well plates. The compounds were tested in two independent biological replicates at the concentration of 1 µM. […] The standard membrane feeding assay (SMFA) is used to measure the parasite transmission through mosquito. In this assay, mature stage V gametocytes of the P. falciparum strain NF54-hsp70-luc were treated with 1 and 10 µM of the nine selected compounds for 24 h, added with human red blood cells and serum to achieve a haematocrit of 50% and then fed to mosquitoes. Luminescence was analyzed in the mosquito salivary glands 8 days post-feeding.
SMFA was performed commercially by TropiQ Health Sciences (Nijmegen, The Netherlands). Test samples were diluted in DMSO and then in RPMI medium (Gibco, 51800043) to achieve a final DMSO concentration of 0.1%. Diluted samples were combined with stage V gametocytes from P. falciparum strain NF54-hsp70-luc and incubated for 24 h. Subsequently, human red blood cells and human serum with the sample were added to achieve a haematocrit of 50%. The blood meal was fed to two-day old Anopheles stephensi mosquitoes that were starved the night prior to the blood meal. […] Mosquito infection was analyzed 8 days post-feeding by luminescence measurements of whole mosquitoes as described previously. For each feeder, luminescence intensity was analyzed in 15–24 mosquitoes per feeder (N = 1, n = 15–24). Luminescence background levels were determined from 15–24 uninfected mosquitoes. Controls: vehicle (0.1% DMSO) in duplicate.

O=S(=O)(NCC1(O)CCOc2ccccc21)c1ccc(Br)s1 (stereo not drawn) [Compound 84, reference compound]
IC50 [1]: > 51200 nM | IC50 [2]: 29600 nM | IC50 (HeLa cells): > 32000 nM | IC50 [3]: 11300 nM | Inhibition of male exflagellation at 1 µM ([4]; Replicate 1): 1.9 | Inhibition of male exflagellation at 1 µM ([4]; Replicate 2): 0 | Exflagellation @ 1 uM (% of DMSO) 1 ([4]; 1 uM, replicate 1): 1.90 % of DMSO | Exflagellation @ 1 uM (% of DMSO) 2 ([4]; 1 uM, replicate 2): 0.00 % of DMSO

CN(C)c1ccc2nc3ccc(=[N+](C)C)cc-3sc2c1 [MB, methylene blue]
Inhibition of male exflagellation at 1 µM ([5]; Replicate 3): 5.8 | Inhibition of male exflagellation at 1 µM ([5]; Replicate 4): 7.7 | Luminescence counts ([6]; 48 h, hematocrit 0.625%): 88 RLU and 72 RLU | Luminescence counts ([6]; 48 h, hematocrit 2.5%): 208 RLU and 224 RLU | Luminescence counts ([6]; 72 h, hematocrit 0.625%): 64 RLU and 56 RLU | Luminescence counts ([6]; 72 h, hematocrit 1.25%): 48 RLU and 56 RLU | Luminescence counts ([6]; 72 h, hematocrit 2.5%): 80 RLU and 88 RLU | Inhibition of male exflagellation at 1 µM ([4]; Replicate 1): 2.985 | Inhibition of male exflagellation at 1 µM ([4]; Replicate 2): 1.163

CS(=O)(=O)c1ccc(-c2cnc(N)c(-c3ccc(C(F)(F)F)nc3)c2)cc1 [MMV0048, reference compound]
transmission blocking in SMFA ([7]; 1 µM): abolished the parasite transmission | transmission blocking in SMFA ([7]; 10 µM): abolished the parasite transmission

CS(=O)(=O)c1ccc(-c2cnc(N)c(-c3ccc(C(F)(F)F)nc3)c2)cc1 [MMV-048]
luminescence signal of individual mosquitoes (SMFA, Fig. 5) ([7]; compound at 1 µM): 6 and 9 and 5 and 28 and 32 and 4 and 3 and 8 and 58 and 2 and 20 and 83 | luminescence signal of individual mosquitoes (SMFA, Fig. 5) ([7]; compound at 10 µM): 6 and 8 and 5 and 3 and 7
